The results in this text go back to US4176184A, “Imidazoisoquinoline-diones and salts thereof” (Boehringer Ingelheim GmbH, priority 1977, dated 1979).

Structures can show the parent of a compound that is named as a salt. Where two headings read alike, the source gives them in different places. Bounds are passed on as bounds.

Series [1] deals with arterial blood pressure and dp/dt max. (left ventricle). Nature of the series: Cardiotonic and blood pressure effects in anesthetized cats. The following applies: 2 mg/kg intravenously; for Change in blood pressure (first value of the pair printed with a slash): first of two values; for Change in blood pressure (second value of the pair printed with a slash): second of two values; for change in vivo at 2 mg/kg: Felis catus, iv, dp/dt max., index of contractility, read-out: Increase in dp/dt. The class given is in vivo, cat. As to the method:
1. Cardiotonic and blood pressure effects
Cats of both sexes with a body weight of 2 to 4 kg were anesthetized by intraperitoneal injection of 30 mgm/kg of sodium pentobarbital. The arterial blood pressure was measured by a Statham pressure transducer (P23 Dc) from the aorta abdominalis via a PVA-Catheter, which was inserted through the right arteria femoralis. The ventricle pressure was measured by a cathetertip manometer (type MILLAR PC-350), which was introduced into the left ventricle via the right arteria carotis. The indices of contractility dp/dt max. were obtained by a differentiating amplifier. The arterial blood pressure and dp/dt max. were continuously recorded by direct-writer. The test compounds were injected intravenously at 2 mg/kg.

Another series is described as follows: Acute toxicity in mice. The following applies: mouse, in vivo, dose at which 50% of the animals died.
For series [2], the system named is isolated electrically stimulated left auricle of the guinea pig. Nature of the series: Effect on the effective refractory period of the isolated electrically stimulated left auricle of the guinea pig. The following applies: Cavia porcellus; Tyrode's solution, 37° C.; cumulative dosing; graphically determined from dose response curves; read-out: EC50 (concentration which reduces the maximum stimulation frequency by 50%). As to the method: 2. Effect on the effective refractory period of the isolated electrically stimulated left auricle of the guinea pig
Guinea pigs of both sexes were killed by a blow on the neck. After opening the thorax, the heart was quickly removed and transferred into a Tyrode's solution (37° C.). The auricles were separated from the ventricles along the Annulus fibrosus, and only the left auricles were used. Electrical stimulation was performed by a Grass stimulator, S4G, with square wave impulses of 1 millisecond duration and a stimulation voltage of 12 V. The auricles were suspended in Tyrode's solution at 37° C. containing 136.8 mVal NaCl, 2.68 mVal KCL, 0.2625 mVal MgCl2, 0.417 mVal NaH2 PO4, 11.9 mVal NaHCO3, 1.8 mVal CaCl, and 3 gm of glucose perliter. The solution was continuously aerated with O2 /CO2 (98%/2%). The isometric contractions were measured with a force displacement transducer and recorded on a Grass polygraph (P5). The number of the contractions was counted out and compared with the frequency indicated at the stimulator.
The maximum stimulation frequency was determined by increasing the stimulation rate every 10 seconds by 1 Hz. The maximum stimulation frequency was measured in preliminary tests by determining the average value. During the intervals of 5 minutes each between the measurements, the stimulation rate was 0.5 Hz.
After the determination of the average value the test compound was added to the Tyrode's solution and the stimulation rate was maintained at 0.5 Hz. During the first 5 minutes the inotropic effect of the compound was observed. Measurements were performed every 5 and 10 minutes after addition of the test compound. The average value resulting from the two tests (value at 5 minutes and 10 minutes, respectively) was taken as the maximum stimulation frequency after addition of the test compound. At first small doses were given, and after determination of the maximum stimulation frequency the dose was increased cumulatively and the maximum stimulation frequency for that dose was measured.
The maximum stimulation frequency is measured by increasing the stimulation rate. When the interval between two stimuli is shortened, a stimulation rate is reached at which every second stimulation falls into the refractory period of the foregoing contraction and will not be answered with a contraction. So, the maximum stimulation frequency is a measure of the effective refractory period. Compounds which reduce the maximum stimulation frequency, prolong the refractory period.
From the dose response curves the concentrations which reduce the maximum stimulation frequency by 50%, were graphically determined: […]

Series [3] relates to chloroform-induced ventricular fibrillation. Nature of the series: Antiarrhythmic effect against chloroform-induced ventricular fibrillation in mice. The class given is in vivo. The following applies: Mus musculus, 1 min, male mice, ventricular fibrillation prevented in 50% of animals. The procedure:
3. Antiarrhythmic effect against chloroform-induced ventricular fibrillation in mice
On placing a mouse into a chloroform-saturated atmosphere, the animal becomes anesthetized after 40 sec., the spontaneous respiration stops, and after 20 sec. more, gasping respiration sets in.
Immediately after the gasping respiration has ceased, the mouse is taken out of the chloroform atmosphere, the thorax is opened, and the heart is quickly exposed to allow inspection of the heart movement. For 1 minute after opening the thorax, spontaneous ventricular fibrillation occurs in nearly all the animals or can be induced by touching the heart with tweezers.
Pre-treatment with antiarrhythmic compounds reduces the number of animals which show fibrillation in a dose-dependent way. The dose which reduces the number of animals having fibrillations by 50% (ED50) is calculated by means of dose-response curves and the standard deviation is determined [MILLER, L. C. and TAINTER, M. L., Proc. Soc. Exp. Biol. Med. 57, 261 (1944)].
The tests were performed on male mice, body weight 20-25 gm. Each dose was tested on 10 animals.
The dose was determined, at which after i.v. and p.o. administration one minute before starting the test, the ventricular fibrillation was prevented in 50% of the animals.

Setting [4] is: po, read-out: Toxicity (LD50) p.o.
Where [5] appears, read: iv, i.v. one minute before test, read-out: ED50 i.v.
Where [6] appears, read: po, p.o. one minute before test, read-out: ED50 p.o.

Consider `CC1(C)C(=O)NC(=O)c2c1ccc1nc(-c3ccc(O)cc3)[nH]c21` [J, 7,7-Dimethyl-2-(4-hydroxy-phenyl)-5H,7H-imidazo[4,5-h]isoquinoline-4,6-dione hydrochloride], for which, in series [1], the Duration was over 29 min, the “Change in blood pressure (first value of the pair printed with a slash)” value is -47 mm Hg and the “Change in blood pressure (second value of the pair printed with a slash)” value was -58 mm Hg.

Regarding `CC1(C)C(=O)NC(=O)c2c1ccc1nc(C3CCCCC3)[nH]c21` [F], in series [1], the Duration was over 42 min, the “Change in blood pressure (first value of the pair printed with a slash)” value is listed as -23 mm Hg and the “Change in blood pressure (second value of the pair printed with a slash)” value is -40 mm Hg. Further, the LD50 in “Acute toxicity in mice” (setting [4]) was over 300 mg/kg.

Consider `CN(C)CCN1C(=O)c2c(ccc3nc(-c4ccccc4)[nH]c23)C(C)(C)C1=O` [Q, 7,7-Dimethyl-2-phenyl-5-(2-dimethylamino-ethyl)-5H,7H-imidazo[4,5-h]isoquinoline-4,6-dione-dihydrochloride], for which the EC50 in series [2] is 4.8 µg/mL. Besides, the ED50 in series [3] (setting [5]) turned out to be 6.1 mg/kg; in series [3] (setting [6]), 23.5 mg/kg.

For the compound `CC1(C)C(=O)N(CCCN2CCCCC2)C(=O)c2c1ccc1nc(-c3ccccc3)[nH]c21` [P, 7,7-Dimethyl-2-phenyl-5-(3-piperidino-propyl)-5H,7H-imidazo[4,5-h]isoquinoline-4,6-dione dihydrochloride], the EC50 in series [2] was found to be 6.7 µg/mL. Besides, the figures for the ED50 in series [3] (setting [5]) and in series [3] (setting [6]) were 10.5 mg/kg and 130 mg/kg, respectively.

For the compound `CC1(C)C(=O)NC(=O)c2c1ccc1nc(Cc3ccccc3)[nH]c21` [D, 7,7-Dimethyl-2-benzyl-5H,7H-imidazo[4,5-h]isoquinoline-4,6-dione], in series [1], the Duration is over 57 min, the “Change in blood pressure (first value of the pair printed with a slash)” value is reported as -67 mm Hg, the “Change in blood pressure (second value of the pair printed with a slash)” value was -63 mm Hg and the change in vivo at 2 mg/kg was 110%. Also, the LD50 in the series “Acute toxicity in mice” (setting [4]) is over 300 mg/kg.

With `COc1ccc([S+](C)[O-])cc1-c1nc2ccc3c(c2[nH]1)C(=O)NC(=O)C3(C)C` (centres unmarked) [L, 7,7-Dimethyl-2-(2-methoxy-5-methylsulfinyl-phenyl)-5H,7H-imidazo[4,6-h]isoquinoline-4,6-dione hydrochloride], in series [1], the Duration is over 70 min, the “Change in blood pressure (first value of the pair printed with a slash)” value is given as -42 mm Hg and the “Change in blood pressure (second value of the pair printed with a slash)” value was -53 mm Hg.

As to `CC1(C)C(=O)NC(=O)c2c1ccc1nc(-c3ccc(Cl)cc3)[nH]c21` [G, 7,7-Dimethyl-2-(4-chloro-phenyl)-5H,7H-imidazo[4,5-h]isoquinoline-4,6-dione hydrochloride], in series [1], the Duration came out at 9 min, the “Change in blood pressure (first value of the pair printed with a slash)” value is recorded as -40 mm Hg and the “Change in blood pressure (second value of the pair printed with a slash)” value is reported as -30 mm Hg.

Consider `COc1ccc(-c2nc3ccc4c(c3[nH]2)C(=O)NC(=O)C4(C)C)c(OC)c1` [A, 7,7-Dimethyl-2-(2,4-dimethoxy-phenyl)-5H,7H-imidazo[4,5-h]isoquinoline-4,6-dione hydrochloride], for which, in series [1], the Duration is over 24 min, the “Change in blood pressure (first value of the pair printed with a slash)” value is listed as -49 mm Hg and the “Change in blood pressure (second value of the pair printed with a slash)” value is -48 mm Hg.

In the case of `COc1ccc(S(C)(=O)=O)cc1-c1nc2ccc3c(c2[nH]1)C(=O)NC(=O)C3(C)C` [K, 7,7-Dimethyl-2-(2-methoxy-5-methylsulfonyl-phenyl)-5H,7H-imidazo[4,5-h]isoquinoline-4,6-dione], in series [1], the Duration is over 107 min, the “Change in blood pressure (first value of the pair printed with a slash)” value is reported as -70 mm Hg, the “Change in blood pressure (second value of the pair printed with a slash)” value is given as -67 mm Hg and the change in vivo at 2 mg/kg is 157%. The 50% lethal dose (LD50) in “Acute toxicity in mice” (setting [4]) was over 300 mg/kg.

`COc1ccccc1-c1nc2ccc3c(c2[nH]1)C(=O)NC(=O)C3(C)C` [Compound E, 7,7-Dimethyl-2-(2-methoxy-phenyl)-5H,7H-imidazo[4,5-h]isoquinoline-4,6-dione hydrochloride]: in series [1], the Duration was 12 min, the “Change in blood pressure (first value of the pair printed with a slash)” value is listed as -46 mm Hg and the “Change in blood pressure (second value of the pair printed with a slash)” value is reported as -63 mm Hg.

`COc1ccc(-c2nc3ccc4c(c3[nH]2)C(=O)NC(=O)C4(C)C)cc1` [I, 7,7-Dimethyl-2-(4-methoxy-phenyl)-5H,7H-imidazo[4,5-h]isoquinoline-4,6-dione hydrochloride]: in series [1], the Duration is over 19 min, the “Change in blood pressure (first value of the pair printed with a slash)” value is given as -33 mm Hg and the “Change in blood pressure (second value of the pair printed with a slash)” value is -46 mm Hg.

On to `CSc1ccc(-c2nc3ccc4c(c3[nH]2)C(=O)NC(=O)C4(C)C)cc1` [H, 7,7-Dimethyl-2-(4-methylmercapto-phenyl)-5H,7H-imidazo[4,5-h]isoquinoline-4,6-dione], for which, in series [1], the Duration is over 12 min, the “Change in blood pressure (first value of the pair printed with a slash)” value is -45 mm Hg and the “Change in blood pressure (second value of the pair printed with a slash)” value is recorded as -45 mm Hg.

In the case of `CC1(C)C(=O)NC(=O)c2c1ccc1[nH]c(CCc3ccccc3)nc21` [C], in series [1], the Duration was over 20 min, the “Change in blood pressure (first value of the pair printed with a slash)” value is -40 mm Hg and the “Change in blood pressure (second value of the pair printed with a slash)” value was -50 mm Hg.

As for `CCN(CC)CCCN1C(=O)c2c(ccc3nc(-c4ccccc4)[nH]c23)C(C)(C)C1=O` [O, 7,7-Dimethyl-2-phenyl-5-(3-diethylamino-propyl)-5H,7H-imidazo[4,5-h]isoquinoline-4,6-dione dihydrochloride], the EC50 in series [2] is 5 µg/mL. Also, the median effective dose (ED50) in series [3] (setting [5]) amounted to 6.4 mg/kg; in series [3] (setting [6]), 29 mg/kg. In addition, the 50% lethal dose (LD50) in the series “Acute toxicity in mice” (ip, read-out: Toxicity (LD50) i.p.) was 61 mg/kg; in the series “Acute toxicity in mice” (setting [4]) it was 92 mg/kg.

As to `CCN(CC)CCN1C(=O)c2c(ccc3nc(-c4ccccc4)[nH]c23)C(C)(C)C1=O` [N, 7,7-Dimethyl-2-phenyl-5-(2-diethylamino-ethyl)-5H,7H-imidazo[4,5-h]isoquinoline-4,6-dione dihydrochloride], in series [2], the EC50 was determined as 1.8 µg/mL. Besides, the ED50 in series [3] (setting [5]) was 2.4 mg/kg; in series [3] (setting [6]), 21.2 mg/kg.

Regarding `CC1(C)C(=O)NC(=O)c2c1ccc1nc(C3CC3)[nH]c21` [M, hydrochloride], in series [1], the Duration is over 55 min, the “Change in blood pressure (first value of the pair printed with a slash)” value is -41 mm Hg, the “Change in blood pressure (second value of the pair printed with a slash)” value is -49 mm Hg and the change in vivo at 2 mg/kg is 108%.

As to `COc1cc(S(C)(=O)=O)ccc1-c1nc2ccc3c(c2[nH]1)C(=O)NC(=O)C3(C)C` [B, 7,7-Dimethyl-2-(2-methoxy-4-methylsulfonyl-phenyl)-5H,7H-imidazo[4,5-h]isoquinoline-4,6-dione], in series [1], the Duration was over 56 min, the “Change in blood pressure (first value of the pair printed with a slash)” value is -52 mm Hg and the “Change in blood pressure (second value of the pair printed with a slash)” value is recorded as -80 mm Hg.

One may read the LD50 as the dose at which mortality reaches 50%. What is called ED50 is the dose at which the effect has come halfway, by size or by number of responders.
